Data: US11160788B2, “Caspase-1 inhibition and uses thereof for prevention and treatment of neurological conditions” (priority 2016, dated 2021)
Entries after “also recorded” stand apart in the source; their conditions may differ.

Key:
J20 mice [1] = experiment: NOR, preventive treatment of pre-symptomatic J20 mice; assay type: in vivo, mouse
Experimental: FIG. 22: Novel object recognition behavioral assay to assess episodic memory in J20 mice. Mice were treated with vehicle (WT and J20) or 50 mg/kg VX-765 (J20) at 2 months of age for 1 month (3 injections per week×4 weeks=12 injections). (a) Schematic representation of the manner in which the studies were carried out. (b) Discrimination index indicates the number of touches of the novel object minus the number of touches of the familiar object divided by the number of total touches for both objects. Two-way ANOVA (F(2,240)=75.62, p<0.0001) with Dunnett's compared to the J20+vehicle. * p<0.05, **** p<0.0001 (c) % mice impaired in NOR in each group of mice tested at the different time points.
Studies are done on 8 (pre-symptomatic) week old J20 and littermate WT controls injected with 50 mg/Kg VX-765 or vehicle. The 8 week old mice are injected for 4 weeks (3 injections per week) and monitored for memory deficits at 16 weeks of age and every 4 weeks thereafter until the mice reach 8 months of age. VX-765 delays the onset of cognitive deficits by at least 5 months in the J20 mouse.
To determine if VX-765 can delay the appearance of AD-like cognitive deficits and pathology in the J20 mice, J20 mice were injected 3 times per week for 4 weeks starting at 2 months of age. We started NOR tests at 4 months of age, after 1 month without drug, and retested every month thereafter until 8 months of age (FIG. 3). […] At 8 months of age, only 1 of 3 mice have NOR deficit resulting in an averaged normal behavior. Since we sacrificed 2 mice per group at 4, 5, and 6 months and 3 mice per group at 7 and 8 months, note that the results of the older groups need more experimental data for solid conclusions.
We directly tested whether pre-symptomatic inhibition of inflammation in a mouse genetic model of Alzheimer disease can stem the progression of memory and behavioral deficits, and Alzheimer disease-like pathology. The J20 amyloid precursor protein Swedish/Indiana mutant mouse was treated at 2 months of age for a one month period with 50 mg/Kg Caspase-1 inhibitor VX-765 (FIG. 22a).

J20 mice [2] = experiment: Aβ immunostaining, thioflavin S and ELISA, treated symptomatic J20 mice brains; assay type: in vivo, mouse
From the text: FIG. 11: VX-765 prevents the progression of Aβ in J20 mice. (a) Aβ immunohistographs of the stratum lacunosum molecular layer of the hippocampus and S1 cortex of pre-treated 5-month old J20 (baseline) and 8-month old vehicle- or VX-765-treated WT or J20 mice with anti-F2576 antiserum (Scale bar=50 μm). (b) Quantitative analysis comparing Aβ immunostaining density between J20+Vehicle (n=5) and J20+VX-765 (n=4) mice in the hippocampus from the pyramidal cell layer to the stratum lacunosum molecular layer (p=0.0029) and cortex (p=0.0314, unpaired t test). (c) Quantitative analysis comparing RIPA-soluble Aβ42 over total Aβ (Aβ38+Aβ40+Aβ42) levels in pre-treated 5-month old J20, 8-month old vehicle- or VX-765 treated J20 mice hippocampus (F(2,9)=6.614, p=0.0171, ANOVA, Tukey's post-hoc, * p<0.05). No ELISA signal was obtained from WT mice brains. (d) RIPA-soluble total Aβ measured by ELISA in pg/mg brain tissue. (e,f) Formic acid soluble Aβ42 over total Aβ (Aβ38+Aβ40+Aβ42) (e) and total Aβ (f) levels measured by ELISA in pg/mg brain tissue. Student t-test used to assess difference between J20+vehicle and J20+VX-765. (g,h,i) RIPA-soluble and (j,k,l) formic acid soluble Aβ38, Aβ40, and Aβ42 measured by ELISA in pg/mg brain tissue. (m) APP mRNA and protein levels and (n) insulin degrading enzyme (IDE) and neprilysin mRNA levels (o) in hippocampus and cortex.
FIG. 19: Aβ stained with Thioflavin S or anti-Aβ1-40 F25276 antiserum in mice hippocampi or cortex. (a) Comparison of anti-Aβ immunostaining and thioflavin S stained Aβ in 8 month old vehicle-treated WT and J20 and in VX-765-treated J20 brain hippocampi and cortex (after T3). (b) Anti-Aβ F25276 immunopositive staining in 8 month old vehicle-treated J20, J20/Casp1−/−, and VX-765-treated (T3) mice hippocampi. (c) Higher magnification of Aβ and Iba1 immunopositive deposits in 8 month old vehicle-treated J20, J20/Casp1^−/−, and VX-765-treated (T3) mice hippocampi.
To assess AD-like pathology, immunohistochemical analyses were performed to detect amyloid deposition (anti-AβF25276)^5,6, microglial (Iba1) activation^7, astrogliosis (GFAP), synaptophysin protein levels on coronal brain sections. Multiplex MSD ELISA was used to assess Aβ levels and 38,40, and 42 subtypes, and II-1β brain levels. RT-PCR was used to assess levels of human APP^Sw/Ind.

CCO[C@@H]1OC(=O)C[C@@H]1NC(=O)[C@@H]1CCCN1C(=O)[C@@H](NC(=O)c1ccc(N)c(Cl)c1)C(C)(C)C [VX-765, (S)-1-((S)-2-{[1-(4-amino-3-chloro-phenyl)-methanoyl]-amino}-3,3-dimethyl-butanoyl)-pyrrolidine-2-carboxylic acid ((2R,3S)-2-ethoxy-5-oxo-tetrahydro-furan-3-yl)-amide]
delay of the onset of cognitive deficits (J20 mice [1]; 50 mg/Kg, 3 injections per week for 4 weeks from 8 weeks of age): at least 5 months | NOR performance (J20 mice [1]; 4, 5 and 6 months of age (1, 2, 3 month washout)): perform normally on NOR | mice that developed NOR deficits (J20 mice [1]; 7 months of age (4 month washout)): 3 out of 6 | mice with NOR deficit (J20 mice [1]; 8 months of age): 1 of 3 | NOR discrimination index (J20 mice [1]; after 16 and 20 week washout): lower performance although they are still performing better than vehicle-treated J20 mice | NOR discrimination index (J20 mice [1]; average, each washout time point (4 to 20 weeks)): perform like the WT mice | percentage of mice impaired in NOR (J20 mice [1]; each washout time point): does not differ significantly from vehicle-treated WT mice | Aβ42 level in cortex (J20 mice [2]; ELISA of RIPA-extracted brain proteins): reduced | formic acid soluble Aβ38, Aβ40, Aβ42 (J20 mice [2]; hippocampal and cortical tissues): less abundant | RIPA soluble Aβ42 (J20 mice [2]; hippocampus): reduced in the hippocampus | formic acid soluble Aβ42 over total Aβ38+40+42 (J20 mice [2]; hippocampus): also reduced | RIPA-soluble Aβ42 over total Aβ38+40+42 (J20 mice [2]; hippocampus and cortex): also reduced | formic acid soluble total Aβ (J20 mice [2]; hippocampus and cortex): strongly decreased | deposited Aβ (thioflavin S, anti-Aβ immunostaining) (J20 mice [2]; hippocampus and cortex, 50 mg/kg, 12 injections, vs vehicle-injected J20, 50 mg/kg): only retained rare amyloid deposits; also recorded: substantially reduced
